{"source": "patent US20060167226A1", "about": "“Mutations of voltage-gated ion channnels that allow them to express a voltage-independent phenotype and an improved method to use the same” (Cardiome Pharma Corp., priority 2002, published 2006)", "molecular_target": "T1, Kv1.5m channels (Homo sapiens, UniProt P22460, P513D/R400Q/R403Q/R409Q)", "T1 construct": "The coding region of the human gene for Kv1.5 was subcloned into pYC2 (Invitrogen) as an approximately 2 kb HindIII-NotI fragment; expressed in transfected cells; host or cells: Saccharomyces cerevisiae trk1 trk2 strain WΔ3, plasmid pYC2 (GAL1 promoter) or a PGK promoter vector", "T1 sequence (P22460 whole entry R400Q/R403Q/R409Q/P513D, the tested form may be a part)": "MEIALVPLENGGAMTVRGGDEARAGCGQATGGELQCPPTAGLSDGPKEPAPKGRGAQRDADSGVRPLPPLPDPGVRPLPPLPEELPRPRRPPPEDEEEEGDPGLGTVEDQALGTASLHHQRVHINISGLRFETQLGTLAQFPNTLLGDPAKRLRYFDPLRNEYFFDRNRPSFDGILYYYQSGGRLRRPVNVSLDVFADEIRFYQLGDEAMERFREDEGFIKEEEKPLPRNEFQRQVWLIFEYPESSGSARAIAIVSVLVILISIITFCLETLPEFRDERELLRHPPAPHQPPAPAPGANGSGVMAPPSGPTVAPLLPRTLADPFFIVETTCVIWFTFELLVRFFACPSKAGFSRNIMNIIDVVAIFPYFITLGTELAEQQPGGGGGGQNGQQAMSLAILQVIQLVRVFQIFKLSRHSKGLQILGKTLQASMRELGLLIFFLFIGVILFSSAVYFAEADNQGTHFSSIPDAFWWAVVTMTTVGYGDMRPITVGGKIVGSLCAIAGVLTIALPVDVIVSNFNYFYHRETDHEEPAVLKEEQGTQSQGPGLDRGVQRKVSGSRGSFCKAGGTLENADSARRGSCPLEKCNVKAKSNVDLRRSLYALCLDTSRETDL", "assay": "Liquid culture growth assay of trk1 trk2 yeast (WΔ3) expressing Kv1.5m in low potassium media", "format": "cell-based", "conditions": "for OD600 (Batch A) / OD600 (Batch B): QPD WΔ3 transformants, liquid culture; for Block of growth of the trk1 trk2 strain expressing Kv1.5m on low potassium: low potassium media", "description": "Expression of the cloned inserts is under the control of either the constitutively active PGK promoter or the inducible GAL1 promoter. The latter requires growth in/on media containing galactose as sole carbon source. The screening method involves adding the compound to be screened to the growth media of trk1 trk2 yeast expressing the modified potassium channel and determining whether the yeast's growth is inhibited. The tested compound may be incorporated in liquid or solid growth media or added ectopically to solid growth media.\nOur yeast strain, when expressing the mutant Kv1.5 channel, is capable of consistent growth on as little as 0.5 mM potassium. Very few pseudorevertants are capable of growth at this potassium concentration; the vast majority of liquid cultures of the parent strain show absolutely no growth even after more than 24 hours culture. When expressing the mutant Kv1.5 channel, growth is robust and can be blocked by known Kv1.5 channel blockers.\nDetailed Description of the Methods Required for a Liquid Culture Media Assay of Kv1.5:\nLow salt media was made according to Wickerham, L. J. (1951) (Taxonomy of Yeasts. United States Department of Agriculture Technical Bulletin No. 1029), except that the final potassium phosphate concentration was 0.5 mM.\n1. Streak out WΔ3 and Kv1.5m transformed WΔ3 (“Kv1.5m”) culture from frozen stock onto YPD+100 mM K+ and YNB+100 mM K+, ura-agar media plates, respectively, for fresh colonies.\n2. The day before doing the drug assay, use the fresh colonies to grow overnight cultures of WΔ3 in liquid YPD+100 mM K+ media, and grow “Kv1.5 m” in liquid YNB+100 mM K+, ura-media.\n3. Collect the overnight yeast cells and wash them in sterile distilled water. Resuspend WΔ3 cells in the same volume of LS+100 mM K++ uracil media, and resuspend “Kv1.5 m” cells in the same volume of LS+0.5 mM K+, ura-media. These are the seed cultures for the drug assay.\n4. In Falcon 2059 tubes, prepare various concentrations of drugs in LS+0.5 mM K+, ura-media or LS+100 mM K++ uracil media, and also set up solvent controls for each drug concentrations used. Here is an example:\nDrug X stock solution (10 mM) is dissoved in 0.5% Tween-20. Final concentrations that we test are 1 mM, 0.1 mM, and 0.01 mM.\nThen 250 micro liter of the seed culture of “Kv1.5m” from step 3 is inoculated into each tube.\n5. Measure the starting OD600 by taking out 0.1 ml of the sample from each tube and diluting […] for measuring. Grow cultures at […] shaker at 300 rpm.\n6. Get 0.1 ml of samples from each tube and measure their OD600 at 2 hr, 4 hr, 6 hr, 8 hr, and 24 hr."}
{"smiles": "Nc1ccncc1", "note": "[Compound 4-AP, 4-aminopyridine]", "values": [{"measurement": "inhibition at 1000 µM", "setting": "1 mM 4-AP, both batches, read-out: reduction at OD600 (inhibition of yeast growth)", "result": 50, "unit": "%"}, {"measurement": "OD600 (Batch A)", "setting": "LS + 0.5 mM K+ + 0.1 mM 4-AP", "result": 2.55}, {"measurement": "OD600 (Batch B)", "setting": "LS + 0.5 mM K+ + 0.1 mM 4-AP", "result": 2.5}, {"measurement": "OD600 (Batch A)", "setting": "LS + 0.5 mM K+ + 1 mM 4-AP", "result": 1.11}, {"measurement": "OD600 (Batch B)", "setting": "LS + 0.5 mM K+ + 1 mM 4-AP", "result": 1.11}, {"measurement": "Block of growth of the trk1 trk2 strain expressing Kv1.5m on low potassium", "result": "can block the Kv1.5m channels"}, {"measurement": "Block of growth of the trk1 trk2 strain expressing Kv1.5m on low potassium", "setting": "listed as 4-aminopyridine", "result": "could be blocked"}]}
